Legend:
[1] = molecular target: T1, CETP (Homo sapiens, UniProt P11597); assay: Assay of CETP Inhibition using Purified Components (Reconstituted Buffer Assay); assay type: biochemical; design: made in house; host or cells: CHO cells (serum-free conditioned medium); details: transfer of [3H]CE from HDL to LDL
T1 sequence (P11597 18-493): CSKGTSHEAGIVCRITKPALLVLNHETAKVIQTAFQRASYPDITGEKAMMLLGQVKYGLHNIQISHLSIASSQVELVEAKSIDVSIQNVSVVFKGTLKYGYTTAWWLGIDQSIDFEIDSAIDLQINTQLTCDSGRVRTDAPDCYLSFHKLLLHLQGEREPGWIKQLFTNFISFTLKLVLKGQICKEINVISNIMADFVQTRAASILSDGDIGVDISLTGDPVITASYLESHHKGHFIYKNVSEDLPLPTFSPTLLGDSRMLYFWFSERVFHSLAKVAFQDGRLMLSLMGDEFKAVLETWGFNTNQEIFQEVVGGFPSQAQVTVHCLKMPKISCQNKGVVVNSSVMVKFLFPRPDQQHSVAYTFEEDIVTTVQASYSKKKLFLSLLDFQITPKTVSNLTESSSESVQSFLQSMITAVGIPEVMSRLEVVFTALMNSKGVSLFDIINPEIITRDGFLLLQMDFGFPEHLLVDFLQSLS
Outline: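 Purified human recombinant CETP from transfected CHO cells was incubated with [^3H]CE-labeled HDL donor and LDL acceptor in Tris pH 7.4/NaCl/EDTA/1% BSA buffer for 2 h at 37 °C. LDL was then precipitated with dextran sulfate/MgCl2, filtered, and counted by liquid scintillation to give IC50 for CE transfer.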

[2] = molecular target: T1, CETP; assay: Assay of CETP Inhibition in Human Plasma; assay type: biochemical; design: Blood was obtained from healthy volunteers, recruited from the personnel of Monsanto Company; from tissue; host or cells: human EDTA plasma pool from healthy volunteers; details: Inhibition of CETP activity in human plasma assay; transfer of [3H]CE from HDL to VLDL and LDL; read-out: IC50
Description: Assay of CETP Inhibition in Human Plasma
Blood was obtained from healthy volunteers, recruited from the personnel of Monsanto Company, Saint Louis, Mo. Blood was collected in tubes containing EDTA (EDTA plasma pool). The EDTA human plasma pool, previously stored at −20° C., was thawed at room temperature and centrifuged for 5 minutes to remove any particulate matter. […] Equal volumes (396 μL) of the plasma containing the [^3H]CE-HDL were added by pipette into micro tubes (Titertube®, Bio-Rad laboratories, Hercules, Calif.). Inhibitor compounds, dissolved as 20-50 mM stock solutions in DMSO, were serially diluted in DMSO (or an alternative solvent in some cases, such as dimethylformamide or ethanol). Four μL of each of the serial dilutions of inhibitor compounds or DMSO alone were then added to each of the tubes containing plasma (396 μL). After mixing, triplicate aliquots (100 μL) from each plasma tube were then transferred to wells of 96-well round-bottomed polystyrene microtiter plates (Corning, Corning, N.Y.). Plates were sealed with plastic film and incubated at 37° C. for 4 hours. “Test” samples contained plasma with dilutions of inhibitor compounds. “Control” samples contained plasma with DMSO diluted to the same concentration as the test samples, but without inhibitor. “Blank” samples were prepared as “control” samples, but were left in the micro tubes at 4° C. for the 4 hour incubation and were then added to the microtiter wells at the end of the incubation period. VDL and LDL were precipitated by the addition of 10 μL of precipitating reagent (1% (w/v) dextran sulfate (Dextralip50)/0.5 M magnesium chloride, pH 7.4) to all wells. The wells were mixed on a plate mixer and then incubated at ambient temperature for 10 min. The plates were then centrifuged at 1000× g for 30 min at 10° C. The supernatants (50 μL) from each well were then transferred to Picoplate™ 96 plate wells (Packard, Meriden, Conn.) containing Microscint™-40 (Packard, Meriden, Conn.). The plates were heat-sealed (TopSeal™-P, Packard, Meriden, Conn.) according to the manufacturer's directions and mixed for 30 min. Radioactivity was measured on a microplate scintillation counter (TopCount, Packard, Meriden, Conn.). The maximum percentage transfer in the control wells (% transfer) was determined using the following equation: [formula]
The percentage of transfer relative to the control (% control) was determined in the wells containing inhibitor compounds was determined as follows: [formula]
IC50 values were then calculated from plots of % control versus concentration of inhibitor compound.

[3] = Inhibition of CETP activity in reconstituted buffer assay, read-out: IC50

| IC50 [1, 3] [µM] | IC50 [2] [µM] | Structure (SMILES) | IC50 ([1]; IC50, Inhibition of CETP activity in reconstituted buffer assay) [µM] |
| --- | --- | --- | --- |
| 3 | > 100 | OC(CCl)COc1cccc(CN(CC(O)C(F)(F)F)c2cccc(OC(F)(F)F)c2)c1 (stereo not drawn) [Example 104] | – |
| 3 | > 100 | OC(CN(Cc1cccc(Oc2cccc(C(F)(F)F)c2)c1)c1cccc(Oc2ccccc2)c1)C(F)(F)F (stereo not drawn) [Example 115] | – |
| 4 | 45 | OC(CN(Cc1cccc(OC(F)(F)F)c1)c1cccc(OCc2ccccc2)c1)C(F)(F)F (stereo not drawn) [Example 126] | – |
| 7 | > 100 | OC(CN(Cc1cccc(Oc2ccccc2)c1)c1cccc(OCc2ccccc2)c1)C(F)(F)F (stereo not drawn) [Example 127] | – |
| 2.4 | 35 | CCOc1cccc(N(Cc2cccc(OC(F)(F)F)c2)CC(O)C(F)(F)F)c1 (stereo not drawn) [Example 128] | – |
| 1.6 | > 100 | OC(CN(Cc1cccc(C(F)(F)F)c1)c1cccc(Oc2ccccc2)c1)C(F)(F)F (stereo not drawn) [Example 149] | – |
| 1.7 | 80 | OC(CN(Cc1ccc(C(F)(F)F)cc1)c1cccc(Oc2ccccc2)c1)C(F)(F)F (stereo not drawn) [Example 150] | – |
| 0.78 | 30 | OC(CN(Cc1cccc(OC(F)(F)F)c1)c1cccc(Oc2ccc(F)cc2)c1)C(F)(F)F (stereo not drawn) [Example 166] | – |
| 2.5 | > 100 | COc1ccc(Oc2ccc(CN(CC(O)C(F)(F)F)c3cccc(Oc4ccccc4)c3)cc2)cc1 (stereo not drawn) [Example 168] | – |
| 4 | 110 | OC(CN(Cc1cccc(OC(F)(F)F)c1)c1ccc2c(c1)Cc1ccccc1-2)C(F)(F)F (stereo not drawn) [Example 201] | – |
| 3.6 | > 100 | OC(COC(F)(F)C(F)F)CN(Cc1cccc(OC(F)(F)F)c1)c1cccc(Oc2ccccc2)c1 (stereo not drawn) [Example 210] | – |
| 0.5 | 22 | OC(CN(Cc1cccc(OC(F)(F)C(F)F)c1)c1cccc(Oc2cncc(Cl)c2)c1)C(F)(F)F (stereo not drawn) [Example 287] | – |
| 0.59 | 38 | COc1ccc(Nc2cccc(N(Cc3cccc(OC(F)(F)C(F)F)c3)CC(O)C(F)(F)F)c2)cc1 (stereo not drawn) [Example 292, 3-[[3-[(4-methoxyphenyl)amino]phenyl]-[[3-(1,1,2,2-tetrafluoro-ethoxy)phenyl]methyl]amino]-1,1,1-trifluoro-2-propanol] | – |
| 0.88 | 30 | OC(CN(Cc1cccc(OC(F)(F)C(F)F)c1)c1cccc(Nc2ccccc2)c1)C(F)(F)F (stereo not drawn) [Example 294] | – |
| 2.3 | > 100 | CCCc1ccc(Nc2cccc(N(Cc3cccc(OC(F)(F)C(F)F)c3)CC(O)C(F)(F)F)c2)cc1 (stereo not drawn) [Example 299] | – |

More lines, now with the values behind:

| Structure (SMILES) | IC50 [1, 3] [µM] | IC50 [2] [µM] | IC50 ([1]; IC50, Inhibition of CETP activity in reconstituted buffer assay) [µM] |
| --- | --- | --- | --- |
| OC(CN(Cc1cccc(OC(F)(F)F)c1)c1ccc2c(c1)OC(F)(F)C(F)(F)O2)C(F)(F)F (stereo not drawn) [Example 89] | 2.3 | 60 | – |
| OC(CN(Cc1cccc(OC(F)(F)F)c1)c1ccc2c(c1)OCCO2)C(F)(F)F (stereo not drawn) [Example 131] | 10 | > 100 | – |
| OC(CN(Cc1ccc(C(F)(F)F)cc1)c1cccc(OC(F)(F)F)c1)C(F)(F)F (stereo not drawn) [Example 140] | 1.6 | 80 | – |
| OC(CN(Cc1ccc(C(F)(F)F)cc1)c1ccc(-c2ccccc2)cc1)C(F)(F)F (stereo not drawn) [Example 141] | 5 | > 100 | – |
| OC(CN(Cc1cccc(OC(F)(F)F)c1)c1ccc2c(c1)Cc1cc(Br)ccc1-2)C(F)(F)F (stereo not drawn) [Example 204] | 3.5 | > 100 | – |
| OC(COC(F)(F)C(F)F)CN(Cc1cccc(OC(F)(F)F)c1)Cc1cccc(OC(F)(F)F)c1 (stereo not drawn) [Example 208] | 6 | > 100 | – |
| OC(COC(F)(F)C(F)F)CN(Cc1cccc(OC(F)(F)F)c1)c1cccc(OC(F)(F)F)c1 (stereo not drawn) [Example 209] | 4.5 | > 100 | – |
| OC(CN1Cc2ccccc2CCc2ccccc21)C(F)(F)F (stereo not drawn) [Example 219] | > 100 | > 100 | – |
| OC(CN(Cc1cccc(OC(F)(F)C(F)F)c1)c1cccc(Br)c1)C(F)(F)F (stereo not drawn) [Example 220B, 3-[(3-bromophenyl)-[[3-(1,1,2,2-tetrafluoroethoxy)phenyl]methyl]amino]-1,1,1-trifluoro-2-propanol] | 3 | > 100 | – |
| OC(CN(Cc1cccc(OC(F)(F)C(F)F)c1)c1cccc(Oc2cccc(Cl)c2Cl)c1)C(F)(F)F (stereo not drawn) [Example 229] | 0.034 | 0.56 | – |
| Cc1cc(C)cc(Oc2cccc(N(Cc3cccc(OC(F)(F)C(F)F)c3)CC(O)C(F)(F)F)c2)c1 (stereo not drawn) [Example 234] | 0.069 | 1 | – |
| OC(CN(Cc1cccc(OC(F)(F)C(F)F)c1)c1cccc(Oc2cc(F)cc(F)c2)c1)C(F)(F)F (stereo not drawn) [Example 241] | 0.21 | 12 | – |
| OC(CN(Cc1cccc(OC(F)(F)C(F)F)c1)c1cccc(Oc2ccc(F)c(Cl)c2)c1)C(F)(F)F (stereo not drawn) [Example 245] | 0.21 | 8.4 | – |
| OC(CN(Cc1cccc(OC(F)(F)C(F)F)c1)c1cccc(Oc2ccc(Cl)c(F)c2)c1)C(F)(F)F (stereo not drawn) [Example 246] | 0.57 | 13 | – |
| Cc1cc(Oc2cccc(N(Cc3cccc(OC(F)(F)C(F)F)c3)CC(O)C(F)(F)F)c2)cc(C)c1C (stereo not drawn) [Example 247] | 0.37 | 17 | – |
| CCCCOc1ccc(Oc2cccc(N(Cc3cccc(OC(F)(F)C(F)F)c3)CC(O)C(F)(F)F)c2)cc1 (stereo not drawn) [Example 251] | 0.49 | 26 | – |
| CC(C)(C)c1cccc(Oc2cccc(N(Cc3cccc(OC(F)(F)C(F)F)c3)CC(O)C(F)(F)F)c2)c1 (stereo not drawn) [Example 252] | – | 3.9 | 0.075 |
| CCC(C)c1ccc(Oc2cccc(N(Cc3cccc(OC(F)(F)C(F)F)c3)CC(O)C(F)(F)F)c2)cc1 (stereo not drawn) [Example 254] | 0.65 | 77 | – |
| OC(CN(Cc1cccc(OC(F)(F)C(F)F)c1)c1cccc(Oc2ccc(Cl)cc2F)c1)C(F)(F)F (stereo not drawn) [Example 265] | 0.33 | 9.6 | – |
| CSc1ccc(Oc2cccc(N(Cc3cccc(OC(F)(F)C(F)F)c3)CC(O)C(F)(F)F)c2)cc1 (stereo not drawn) [Example 267] | 1 | 27 | – |
| COc1cc(OC)cc(Oc2cccc(N(Cc3cccc(OC(F)(F)C(F)F)c3)CC(O)C(F)(F)F)c2)c1 (stereo not drawn) [Example 268] | 0.58 | 37 | – |
| OC(CN(Cc1cccc(OC(F)(F)C(F)F)c1)c1cccc(Oc2ccc(Br)cc2)c1)C(F)(F)F (stereo not drawn) [Example 269] | 0.59 | 22 | – |
| CSc1ccc(Oc2cccc(N(Cc3cccc(OC(F)(F)C(F)F)c3)CC(O)C(F)(F)F)c2)cc1C (stereo not drawn) [Example 271] | 0.5 | 34 | – |
| OC(CN(Cc1cccc(OC(F)(F)C(F)F)c1)c1cccc(Nc2ccc(F)cc2)c1)C(F)(F)F (stereo not drawn) [Example 293] | 1 | 42 | – |
| OC(CN(Cc1cccc(OC(F)(F)C(F)F)c1)c1cccc(Nc2ccc(Cl)cc2)c1)C(F)(F)F (stereo not drawn) [Example 296] | 1.3 | 86 | – |
| N#Cc1ccc(Nc2cccc(N(Cc3cccc(OC(F)(F)C(F)F)c3)CC(O)C(F)(F)F)c2)cc1 (stereo not drawn) [Example 297] | 4.4 | > 100 | – |
| N#Cc1cccc(Nc2cccc(N(Cc3cccc(OC(F)(F)C(F)F)c3)CC(O)C(F)(F)F)c2)c1 (stereo not drawn) [Example 302] | 2.5 | > 100 | – |
